# Experimental data published in ChEMBL document CHEMBL1142962, “Antiproliferative prenylated stilbenes and flavonoids from Macaranga alnifolia from the Madagascar rainforest” (J Nat Prod, 2007).
# System: A2780 (human ovarian cancer)
# Experiment: Antiproliferative activity against drug-sensitive human A2780 cells
structure (smiles),measurement,value
CC(C)=CCC/C(C)=C/Cc1c(O)cc2c(c1O)C(=O)C[C@@H](c1ccc(O)c(O)c1)O2 [NYMPHAEOL A],IC50,10.5 µM
